Test results taken from patent US20240016811A1, “CANCER THERAPY USING A COMBINATION OF CDK7 INHIBITOR WITH AN ANTI-MICROTUBULE AGENT” (Aurigene Oncology Limited, priority 2020, published 2024).
“And” between values parts separate entries of the source, which are not always exact repeats. Identical values can stand only once.

Tested on: DU 145 cells
Experiment: Proliferation of DU 145 cells after 3-day treatment, measured using CTG reagent; single agents and combination, synergy analysed with CompuSyn
Format: cell-based
Settings: for inhibition of proliferation in DU145 cells: single agents, conclusion in words
Method: The effect of 3-day compound treatment on cell proliferation was measured using CTG reagent.

Compound: CC(=O)O[C@@]12CO[C@@H]1C[C@H](O)[C@@]1(C)C(=O)[C@H](O)C3=C(C)[C@@H](OC(=O)[C@H](O)[C@@H](NC(=O)OC(C)(C)C)c4ccccc4)C[C@@](O)([C@@H](OC(=O)c4ccccc4)[C@H]21)C3(C)C [Docetaxel, docetaxel]
- % inhibition in proliferation (Docetaxel 0.0002 nM, Day-3, replicate columns): 1.6% and −0.5% and 3.2%
- % inhibition in proliferation (Docetaxel 0.0007 nM, Day-3, replicate columns): −3.9% and −5.1% and 2.9%
- % inhibition in proliferation (Docetaxel 0.0021 nM, Day-3, replicate columns): −2.5% and 1.2% and 3.4%
- % inhibition in proliferation (Docetaxel 0.0188 nM, Day-3, replicate columns): 0.8% and 0.9% and 10.0%
- % inhibition in proliferation (Docetaxel 0.0565 nM, Day-3, replicate columns): 8.8% and 16.0% and 24.0%
- % inhibition in proliferation (Docetaxel 0.1694 nM, Day-3, replicate columns): 8.3% and 2.2% and 4.1%
- % inhibition in proliferation (Docetaxel 0.5081 nM, Day-3, replicate columns): 15.5% and 18.3%
- % inhibition in proliferation (Docetaxel 1.5242 nM, Day-3, replicate columns): 57.5% and 59.4%
- % inhibition in proliferation (Docetaxel 4.5725 nM, Day-3, replicate columns): 98.6% and 99.2%
- % inhibition in proliferation (Docetaxel 13.7174 nM, Day-3, replicate columns): 117.2% and 114.3%
- % inhibition in proliferation (Docetaxel 41.1523 nM, Day-3, replicate columns): 123.1% and 120.5%
- % inhibition in proliferation (Docetaxel 123.4568 nM, Day-3, replicate columns): 126.0% and 122.3%
- % inhibition in proliferation (Docetaxel 370.3704 nM, Day-3, replicate columns): 125.0% and 123.2%
- % inhibition in proliferation (Docetaxel 1111.1111 nM, Day-3, replicate columns): 125.2% and 121.8%
- % inhibition in proliferation (Docetaxel 3333.3333 nM, Day-3, replicate columns): 124.1% and 121.7%
- % inhibition in proliferation (Docetaxel 10000.00 nM, Day-3, replicate columns): 118.3% and 117.0%
- inhibition at 200 fM (Homo sapiens, DU-145, 72 h, Docetaxel 0.0002 nM alone (Compound-44A 0), checkerboard, 3 days): 1.42%
- inhibition at 700 fM (Homo sapiens, DU-145, 72 h, Docetaxel 0.0007 nM alone (Compound-44A 0), checkerboard, 3 days): 0%
- inhibition at 2.1 pM (Homo sapiens, DU-145, 72 h, Docetaxel 0.0021 nM alone (Compound-44A 0), checkerboard, 3 days): 0.69%
- inhibition at 18.8 pM (Homo sapiens, DU-145, 72 h, Docetaxel 0.0188 nM alone (Compound-44A 0), checkerboard, 3 days): 3.89%
- inhibition at 56.5 pM (Homo sapiens, DU-145, 72 h, Docetaxel 0.0565 nM alone (Compound-44A 0), checkerboard, 3 days): 16.3%
- inhibition at 0.0001694 µM (Homo sapiens, DU-145, 72 h, Docetaxel 0.1694 nM (Table 5: 0.17) alone (Compound-44A 0), checkerboard, 3 days): 4.86%
- inhibition at 0.0005081 µM (Homo sapiens, DU-145, 72 h, Docetaxel 0.5081 nM (Table 5: 0.51) alone (Compound-44A 0), checkerboard, 3 days): 15.9%
- inhibition at 0.00152 µM (Homo sapiens, DU-145, 72 h, Docetaxel 1.52 nM alone (Compound-44A 0), checkerboard, 3 days): 55.6%
- inhibition at 0.00457 µM (Homo sapiens, DU-145, 72 h, Docetaxel 4.57 nM alone (Compound-44A 0), checkerboard, 3 days): 97.5%
- inhibition at 0.01372 µM (Homo sapiens, DU-145, 72 h, Docetaxel 13.72 nM alone (Compound-44A 0), checkerboard, 3 days): 116%
- inhibition at 0.04115 µM (Homo sapiens, DU-145, 72 h, Docetaxel 41.15 nM alone (Compound-44A 0), checkerboard, 3 days): 122%
- inhibition at 0.12346 µM (Homo sapiens, DU-145, 72 h, Docetaxel 123.46 nM alone (Compound-44A 0), checkerboard, 3 days): 125%
- inhibition at 0.37037 µM (Homo sapiens, DU-145, 72 h, Docetaxel 370.37 nM alone (Compound-44A 0), checkerboard, 3 days): 125%
- inhibition at 1.11111 µM (Homo sapiens, DU-145, 72 h, Docetaxel 1111.11 nM alone (Compound-44A 0), checkerboard, 3 days): 124%
- inhibition at 3.33333 µM (Homo sapiens, DU-145, 72 h, Docetaxel 3333.33 nM alone (Compound-44A 0), checkerboard, 3 days): 123%
- inhibition at 10 µM (Homo sapiens, DU-145, 72 h, Docetaxel 10000.00 nM alone (Compound-44A 0), checkerboard, 3 days): 118%
- inhibition at 6.3 pM (Homo sapiens, DU-145, 72 h, Docetaxel […] alone (Compound-44A 0), checkerboard, 3 days): 0%
- inhibition at 0.0005081 µM (Homo sapiens, DU-145, Docetaxel 0.5081 nM, Day-3, replicate columns): 14%
- inhibition at 0.0015242 µM (Homo sapiens, DU-145, Docetaxel 1.5242 nM, Day-3, replicate columns): 49.8%
- inhibition at 0.0045725 µM (Homo sapiens, DU-145, Docetaxel 4.5725 nM, Day-3, replicate columns): 94.6%
- inhibition at 0.0137174 µM (Homo sapiens, DU-145, Docetaxel 13.7174 nM, Day-3, replicate columns): 115%
- inhibition at 0.0411523 µM (Homo sapiens, DU-145, Docetaxel 41.1523 nM, Day-3, replicate columns): 123%
- inhibition at 0.123457 µM (Homo sapiens, DU-145, Docetaxel 123.4568 nM, Day-3, replicate columns): 126%
- inhibition at 0.37037 µM (Homo sapiens, DU-145, Docetaxel 370.3704 nM, Day-3, replicate columns): 126%
- inhibition at 1.11111 µM (Homo sapiens, DU-145, Docetaxel 1111.1111 nM, Day-3, replicate columns): 125%
- inhibition at 3.33333 µM (Homo sapiens, DU-145, Docetaxel 3333.3333 nM, Day-3, replicate columns): 124%
- inhibition at 10 µM (Homo sapiens, DU-145, Docetaxel 10000.00 nM, Day-3, replicate columns): 119%
- inhibition of proliferation in DU145 cells: dose dependent inhibition of proliferation

Compound: CC(C)[C@H](C(=O)Nc1cc(C2CC2)[nH]n1)c1cccc(-c2ccc(NC(=O)/C=C/CN3CCOCC3)nc2)c1 (single isomer, unassigned) [Compound-44A]
- % inhibition in proliferation (Compound-44A 0.00209 nM, Day-3, replicate columns): 0.7% and −2.6% and 2.1%
- % inhibition in proliferation (Compound-44A 0.00627 nM, Day-3, replicate columns): −1.3% and 3.7% and −0.3%
- % inhibition in proliferation (Compound-44A 0.01882 nM, Day-3, replicate columns): −4.7% and 2.1% and −5.1%
- % inhibition in proliferation (Compound-44A 0.0565 nM, Day-3, replicate columns): −1.2% and 8.1% and 1.7%
- % inhibition in proliferation (Compound-44A 0.1694 nM, Day-3, replicate columns): −3.1% and 4.7% and −5.4%
- % inhibition in proliferation (Compound-44A 0.5081 nM, Day-3, replicate columns): 8.2% and 0.7% and 3.1%
- % inhibition in proliferation (Compound-44A 1.5242 nM, Day-3, replicate columns): 1.6% and −1.5% and 5.6%
- % inhibition in proliferation (Compound-44A 4.5725 nM, Day-3, replicate columns): 5.9% and 3.4%
- % inhibition in proliferation (Compound-44A 13.7174 nM, Day-3, replicate columns): 13.0% and 12.9%
- % inhibition in proliferation (Compound-44A 41.1523 nM, Day-3, replicate columns): 30.9% and 25.2%
- % inhibition in proliferation (Compound-44A 123.4568 nM, Day-3, replicate columns): 56.2% and 55.9%
- % inhibition in proliferation (Compound-44A 370.3704 nM, Day-3, replicate columns): 77.9% and 80.7%
- % inhibition in proliferation (Compound-44A 1111.1111 nM, Day-3, replicate columns): 110.4% and 105.8%
- % inhibition in proliferation (Compound-44A 3333.3333 nM, Day-3, replicate columns): 111.8% and 110.8%
- % inhibition in proliferation (Compound-44A 10000.00 nM, Day-3, replicate columns): 106.1% and 106.3%
- inhibition at 0.0005 µM (Homo sapiens, DU-145, 72 h, Compound-44A 0.5 nM alone (docetaxel 0), checkerboard, 3 days): 3.98%
- inhibition at 0.0045 µM (Homo sapiens, DU-145, 72 h, Compound-44A 4.5 nM alone (docetaxel 0), checkerboard, 3 days): 4.81%
- inhibition at 0.0137 µM (Homo sapiens, DU-145, 72 h, Compound-44A 13.7 nM alone (docetaxel 0), checkerboard, 3 days): 14.6%
- inhibition at 0.0411 µM (Homo sapiens, DU-145, 72 h, Compound-44A 41.1 nM alone (docetaxel 0), checkerboard, 3 days): 29.1%
- inhibition at 0.1234 µM (Homo sapiens, DU-145, 72 h, Compound-44A 123.4 nM alone (docetaxel 0), checkerboard, 3 days): 55.7%
- inhibition at 0.3703 µM (Homo sapiens, DU-145, 72 h, Compound-44A 370.3 nM alone (docetaxel 0), checkerboard, 3 days): 77.6%
- inhibition at 0.0045725 µM (Homo sapiens, DU-145, Compound-44A 4.5725 nM, Day-3, replicate columns): 5.1%
- inhibition at 0.0137174 µM (Homo sapiens, DU-145, Compound-44A 13.7174 nM, Day-3, replicate columns): 18%
- inhibition at 0.0411523 µM (Homo sapiens, DU-145, Compound-44A 41.1523 nM, Day-3, replicate columns): 31.2%
- inhibition at 0.123457 µM (Homo sapiens, DU-145, Compound-44A 123.4568 nM, Day-3, replicate columns): 55%
- inhibition at 0.37037 µM (Homo sapiens, DU-145, Compound-44A 370.3704 nM, Day-3, replicate columns): 74.1%
- inhibition at 1.11111 µM (Homo sapiens, DU-145, Compound-44A 1111.1111 nM, Day-3, replicate columns): 109%
- inhibition at 3.33333 µM (Homo sapiens, DU-145, Compound-44A 3333.3333 nM, Day-3, replicate columns): 112%
- inhibition at 10 µM (Homo sapiens, DU-145, Compound-44A 10000.00 nM, Day-3, replicate columns): 107%
- inhibition of proliferation in DU145 cells: dose dependent inhibition of proliferation
